Here are results for six molecules from patent publication EP3795574A1, “SYNTHESIS AND USAGE OF 1,2-DIAMINODIAMANTANE PLATINUM(II) COMPLEXES” (Justus-Liebig-Universität Gießen, priority 2019, dated 2021).

For series [1] the following is noted: compared to cisplatin; cited from earlier work.
In another series the test system is testicular cancer. The note with it: cited from earlier work.
For series [2], the system named is deoxyguanosine monophosphate (dGMP). Description: Nucleotide binding experiment by 1H NMR, dGMP. The note with it: molar ratio 1:3.5, 37 °C, 66 h, DMF-d7/D2O, compared to cisplatin. An excerpt:
(§1) Formation of DNA cross-links is the crucial part of the platinum cytotoxicity mechanism. To study diaplatin complex 1 activity on nucleotides in comparison to cisplatin we chose guanosine monophosphate (GMP) and deoxyguanosine monophosphate (dGMP) as substrates (Fig 6). The reaction between platinum complexes and GMP or dGMP causes substitution of their leaving group ligands with nucleotide forming monoadducts that quickly lose a second leaving ligand forming bisadducts. The N7 atom of the purine fragment is known to be the preferred site of attachment to platinum, thus causing easily observable downfield NMR shifts of the adjacent H8 atom. The collected ^1H NMR data during incubation of the reaction mixtures provide time-dependent changes of the H8 atom integral, thereby providing insights into the binding rates between the studied complexes (Fig 7).
(§2) A platinum complex solution in DMF-d7 (0.27 mL, 6.9 mM) was reacted with GMP or dGMP in a molar ratio 1:3.5 introduced with a NaClO4 solution in D2O (0.33 mL, 100 mM). The reaction mixture was immediately transferred into an NMR tube and ^1H NMR data were collected every hour for 66 h at 37 °C. The pH was measured immediately after the reaction mixture was prepared and at the end of the reaction at rt.

The test system of series [3] is guanosine monophosphate (GMP). Description: Nucleotide binding experiment by 1H NMR, GMP. The note with it: molar ratio 1:3.5, 37 °C, 66 h, DMF-d7/D2O, compared to cisplatin.
Source text: as §1, §2

The test system of series [4] is human ovarian cancer cell line A2780. Description: Cellular viability assay (resazurin / Alamar Blue, 72 h). To be noted: A2780, 72 h at 37 °C, compared to cisplatin; result in words. A general note: Alamar Blue is a resazurin reagent that responds to reducing activity.
A further series relates to A2780cis. Kind of series: Cellular viability assay (resazurin / Alamar Blue, 72 h), cisplatin-resistant variant. The note with it: 72 h at 37 °C, compared to cisplatin, result in words.
Series [5] can be described thus: Solubility of the complexes in solvents.

Take `N.N.O=C([O-])C1(C(=O)[O-])CCC1.[Pt+2]` [Carboplatin]: the “increase in concentration to achieve the same effect” value in series [1] is recorded as 20-40 fold.

Take `N.N.[Cl][Pt][Cl]` [Cisplatin, cis-dichlorodiamineplatinum(II)]: the cure rate with testicular cancer is recorded as 90%.

For the molecule “cis-[1,2-diaminodiamantane]dichlorideplatinum(II) [(R,R)-1]”, the “rate of bisadduct formation” value in series [2] and in series [3] was “faster with (R,R)-1 than with cisplatin” each time.

On to “cis-[1,2-diaminodiamantane]dichlorideplatinum(II) [(S,S)-1]”, for which the “rate of bisadduct formation” value in series [2] is “faster than for (R,R)-1 and cisplatin”. Further, the cytotoxicity entry (in series [4]; with A2780cis) was “lowest efficacy” each time.

Take “cis-[1,2-diaminodiamantane]dichlorideplatinum(II) [compound 1]”: the solubility entry was “good solubility” in series [5] (in DMF) and “somewhat soluble” in series [5] (in methanol).

For “cis-[1,2-diaminodiamantane]oxalatoplatinum(II) [(S,S)-2]”, the solubility entry in series [5] ([…]) is recorded as “insoluble”.
